According to publication PMC3265415, “Fatty acyl-CoA reductases of birds” (BMC Biochemistry, 2011):

Tests used:
Experiment in all cases: radio-TLC assay of yeast membrane fraction (alcohols + aldehydes)
Assay type in all cases: biochemical
AdFAR1 = molecular target: T1, AdFAR1 (Anser anser, UniProt G9IBF1); settings: pH 6.5, 37 C
T1 construct: gene FAR1; full-length cDNA from uropygial gland in pYES-DEST52 (primer keeps stop codon); S. cerevisiae BY4741 dga1 lro1 membranes
T1 sequence (G9IBF1 1-515): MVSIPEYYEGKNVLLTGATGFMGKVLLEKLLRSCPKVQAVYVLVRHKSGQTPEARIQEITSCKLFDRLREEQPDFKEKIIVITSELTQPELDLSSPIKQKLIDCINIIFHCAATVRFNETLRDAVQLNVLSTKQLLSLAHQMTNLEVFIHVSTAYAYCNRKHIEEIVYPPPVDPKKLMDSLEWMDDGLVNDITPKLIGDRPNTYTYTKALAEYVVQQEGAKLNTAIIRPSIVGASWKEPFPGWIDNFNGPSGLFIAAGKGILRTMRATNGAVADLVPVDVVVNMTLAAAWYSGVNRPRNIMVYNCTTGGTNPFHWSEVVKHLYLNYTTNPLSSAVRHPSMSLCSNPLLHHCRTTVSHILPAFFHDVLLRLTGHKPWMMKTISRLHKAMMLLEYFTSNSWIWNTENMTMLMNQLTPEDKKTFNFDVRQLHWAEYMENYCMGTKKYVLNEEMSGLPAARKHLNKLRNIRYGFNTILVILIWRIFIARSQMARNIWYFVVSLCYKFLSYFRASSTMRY

GgFAR2 = molecular target: T2, GgFAR2 (Gallus gallus, UniProt A0A3Q2TWV7, V159M/K457R); settings: labelled acyl-CoA as co-substrate; pH 5.5, 37 C
T2 construct: gene FAR2; uropygial gland cDNA in pYES-DEST52, S. cerevisiae BY4741 dga1 lro1 membranes
T2 sequence (A0A3Q2TWV7 1-515 V159M/K457R): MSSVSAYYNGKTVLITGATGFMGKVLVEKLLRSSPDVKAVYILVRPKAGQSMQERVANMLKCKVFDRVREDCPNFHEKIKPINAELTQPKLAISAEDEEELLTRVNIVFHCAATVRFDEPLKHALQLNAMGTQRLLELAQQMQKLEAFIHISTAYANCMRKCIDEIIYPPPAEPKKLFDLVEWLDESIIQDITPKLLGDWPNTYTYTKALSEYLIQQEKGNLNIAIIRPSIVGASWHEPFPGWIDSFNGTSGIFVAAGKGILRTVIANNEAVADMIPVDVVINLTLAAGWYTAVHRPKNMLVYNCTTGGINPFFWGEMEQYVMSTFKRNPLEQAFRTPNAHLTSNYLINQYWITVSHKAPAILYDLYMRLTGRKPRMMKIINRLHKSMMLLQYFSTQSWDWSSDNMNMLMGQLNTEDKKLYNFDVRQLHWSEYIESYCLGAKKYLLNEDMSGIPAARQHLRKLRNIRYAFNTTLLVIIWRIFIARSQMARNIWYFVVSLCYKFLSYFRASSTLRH

TaFAR1 = molecular target: T3, TaFAR1 (Tyto alba, UniProt G9IBF2); settings: labelled 16:0-CoA as co-substrate, NADPH varied; pH 6.5, 37 C
T3 construct: gene FAR1; full-length cDNA from uropygial gland in pYES-DEST52 (primer keeps stop codon); expressed in Saccharomyces cerevisiae BY4741 dga1 lro1; total membrane fraction
T3 sequence (G9IBF2 1-515): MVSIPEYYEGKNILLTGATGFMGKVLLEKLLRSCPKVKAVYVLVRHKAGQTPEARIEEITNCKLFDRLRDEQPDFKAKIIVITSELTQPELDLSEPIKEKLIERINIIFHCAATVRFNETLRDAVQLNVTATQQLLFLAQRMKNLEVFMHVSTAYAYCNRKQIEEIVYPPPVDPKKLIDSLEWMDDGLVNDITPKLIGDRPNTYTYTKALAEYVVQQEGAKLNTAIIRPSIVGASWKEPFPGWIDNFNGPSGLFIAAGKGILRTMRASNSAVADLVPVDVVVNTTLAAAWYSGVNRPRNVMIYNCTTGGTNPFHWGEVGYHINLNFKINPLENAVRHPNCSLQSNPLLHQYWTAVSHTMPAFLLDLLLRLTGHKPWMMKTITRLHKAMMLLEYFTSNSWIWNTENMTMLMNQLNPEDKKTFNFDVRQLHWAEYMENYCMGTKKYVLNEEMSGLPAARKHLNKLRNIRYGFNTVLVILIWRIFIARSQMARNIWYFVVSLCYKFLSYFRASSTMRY

GgFAR1 = molecular target: T4, GgFAR1 (Gallus gallus, UniProt Q5ZM72); settings: labelled acyl-CoA as co-substrate; pH 6.5, 37 C
T4 construct: gene FAR1; uropygial gland cDNA in pYES-DEST52, S. cerevisiae BY4741 dga1 lro1 membranes
T4 sequence (Q5ZM72 1-515): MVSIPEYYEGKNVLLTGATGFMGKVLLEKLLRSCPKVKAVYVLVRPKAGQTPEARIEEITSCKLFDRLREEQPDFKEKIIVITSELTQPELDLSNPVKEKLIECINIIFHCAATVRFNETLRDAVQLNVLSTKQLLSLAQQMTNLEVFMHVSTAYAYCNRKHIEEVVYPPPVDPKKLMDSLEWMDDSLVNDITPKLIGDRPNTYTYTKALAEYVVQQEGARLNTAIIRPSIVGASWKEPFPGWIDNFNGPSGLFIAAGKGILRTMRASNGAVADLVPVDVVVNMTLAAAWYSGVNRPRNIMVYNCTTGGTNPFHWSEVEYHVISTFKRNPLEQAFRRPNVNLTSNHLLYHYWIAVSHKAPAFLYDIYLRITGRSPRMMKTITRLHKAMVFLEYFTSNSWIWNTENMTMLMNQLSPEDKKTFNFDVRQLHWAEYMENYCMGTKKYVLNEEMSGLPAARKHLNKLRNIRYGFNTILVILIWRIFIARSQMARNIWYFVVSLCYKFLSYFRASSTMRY

TaFAR2 = molecular target: T5, TaFAR2 (Tyto alba, UniProt G9IBF3); settings: labelled 18:0-CoA as co-substrate; pH 5.5, 37 C
T5 construct: gene FAR2; full-length cDNA from uropygial gland in pYES-DEST52 (primer keeps stop codon); expressed in Saccharomyces cerevisiae BY4741 dga1 lro1; total membrane fraction
T5 sequence (G9IBF3 1-515): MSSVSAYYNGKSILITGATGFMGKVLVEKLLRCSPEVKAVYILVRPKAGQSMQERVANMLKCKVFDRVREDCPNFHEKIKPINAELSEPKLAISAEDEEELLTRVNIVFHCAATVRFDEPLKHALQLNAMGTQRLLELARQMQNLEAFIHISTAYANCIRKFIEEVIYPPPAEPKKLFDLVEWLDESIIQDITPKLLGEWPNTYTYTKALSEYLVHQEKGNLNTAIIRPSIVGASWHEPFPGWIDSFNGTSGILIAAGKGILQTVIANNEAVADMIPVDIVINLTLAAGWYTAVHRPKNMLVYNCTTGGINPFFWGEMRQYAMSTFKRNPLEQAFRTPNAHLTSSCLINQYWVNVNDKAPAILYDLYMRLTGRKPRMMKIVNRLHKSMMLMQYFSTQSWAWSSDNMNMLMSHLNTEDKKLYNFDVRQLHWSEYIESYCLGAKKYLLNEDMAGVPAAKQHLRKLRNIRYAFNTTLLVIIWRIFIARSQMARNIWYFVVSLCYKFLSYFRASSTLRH

Compound | radio-TLC assay of yeast membrane fraction (alcohols + aldehydes) (AdFAR1; 20 uM acyl-CoA, 5 mM NADPH, 1 mM MgCl2, 16 uM BSA, labelled compound) | radio-TLC assay of yeast membrane fraction (alcohols + aldehydes) (GgFAR2) | radio-TLC assay of yeast membrane fraction (alcohols + aldehydes) (TaFAR1) | radio-TLC assay of yeast membrane fraction (alcohols + aldehydes) (AdFAR1; labelled acyl-CoA as co-substrate) | radio-TLC assay of yeast membrane fraction (alcohols + aldehydes) (GgFAR1) | radio-TLC assay of yeast membrane fraction (alcohols + aldehydes) (TaFAR2)
CCCCCCCCCCCCCCCC(=O)SCCNC(=O)CCNC(=O)[C@H](O)C(C)(C)COP(=O)(O)OP(=O)(O)OC[C@H]1O[C@@H](n2cnc3c(N)ncnc32)[C@H](O)[C@@H]1OP(=O)(O)O [16:0-CoA] | only AdFAR1 of goose was almost equally active with all substrates | – | – | – | – | –
NC(=O)C1=CN([C@@H]2O[C@H](COP(=O)(O)OP(=O)(O)OC[C@H]3O[C@@H](n4cnc5c(N)ncnc54)[C@H](OP(=O)(O)O)[C@@H]3O)[C@@H](O)[C@H]2O)C=CC1 [NADPH] | – | All FAR enzymes required NADPH as electron donor | All FAR enzymes required NADPH as electron donor | All FAR enzymes required NADPH as electron donor | All FAR enzymes required NADPH as electron donor | All FAR enzymes required NADPH as electron donor
